According to patent publication US8883963B2 (Cadila Healthcare Limited, priority 2007, dated 2014):

Key:
[1] = Stability in simulated intestinal fluid; format: in vitro ADME; settings: 2 μM peptidomimetic, simulated intestinal fluid pH 7.5, 37° C.
Protocol: (§1) Reactions were terminated by the addition of TFA/H2O (15 mL, 10% (v/v)). […] The column was equilibrated with TFA/H20, at a flow rate of 1 mL/min.

[2] = Stability in human plasma; format: in vitro ADME; settings: 2 μM peptidomimetic, pooled human plasma, 37° C.; for half-life at 2 μM: pH 7.8, read-out: half-life (t1/2) when incubated with human plasma
Protocol: as §1

[3] = Stability in simulated gastric fluid; format: in vitro ADME; settings: 2 μM peptidomimetic, simulated gastric fluid pH 1.5, 37° C.
Protocol: as §1

human glucagon receptor = molecular target: T1, human glucagon receptor (Homo sapiens, UniProt P47871); test: In vitro human glucagon antagonist activity (inhibition of cAMP production) in CHO/human glucagon R cells; format: cell-based; settings: with saturated concentration of glucagon peptide
T1 construct: The full-length cDNA was cloned in pcDNA3.1 (Invitrogen); expressed in transfected cells
T1 sequence (P47871 26-477): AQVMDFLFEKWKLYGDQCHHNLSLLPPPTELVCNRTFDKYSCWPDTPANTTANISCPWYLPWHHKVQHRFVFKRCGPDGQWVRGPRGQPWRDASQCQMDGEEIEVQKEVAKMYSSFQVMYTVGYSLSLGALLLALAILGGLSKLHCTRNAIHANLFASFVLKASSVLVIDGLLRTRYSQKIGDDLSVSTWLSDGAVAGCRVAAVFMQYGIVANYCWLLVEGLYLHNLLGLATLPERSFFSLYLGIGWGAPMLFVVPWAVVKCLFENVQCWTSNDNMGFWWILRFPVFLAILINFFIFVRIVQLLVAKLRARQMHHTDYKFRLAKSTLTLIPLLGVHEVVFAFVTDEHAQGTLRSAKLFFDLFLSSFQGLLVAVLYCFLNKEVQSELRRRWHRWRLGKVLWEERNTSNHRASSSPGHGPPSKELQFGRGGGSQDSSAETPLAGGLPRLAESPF

DPP IV = DPP IV (Homo sapiens, UniProt P27487); test: Stability against DPP IV enzyme; format: in vitro ADME; settings: 37° C.; for % degradation of peptidomimetics in 24 h when incubated with DPP-IV enzyme: 2 μM peptidomimetic; for half-life at 2 μM: DPP IV enzyme, pH 7.8, 2 μM peptidomimetic, read-out: half-life (t1/2) when incubated with DPP-IV enzyme
Sequence of DPP IV (P27487 whole entry, species assumed): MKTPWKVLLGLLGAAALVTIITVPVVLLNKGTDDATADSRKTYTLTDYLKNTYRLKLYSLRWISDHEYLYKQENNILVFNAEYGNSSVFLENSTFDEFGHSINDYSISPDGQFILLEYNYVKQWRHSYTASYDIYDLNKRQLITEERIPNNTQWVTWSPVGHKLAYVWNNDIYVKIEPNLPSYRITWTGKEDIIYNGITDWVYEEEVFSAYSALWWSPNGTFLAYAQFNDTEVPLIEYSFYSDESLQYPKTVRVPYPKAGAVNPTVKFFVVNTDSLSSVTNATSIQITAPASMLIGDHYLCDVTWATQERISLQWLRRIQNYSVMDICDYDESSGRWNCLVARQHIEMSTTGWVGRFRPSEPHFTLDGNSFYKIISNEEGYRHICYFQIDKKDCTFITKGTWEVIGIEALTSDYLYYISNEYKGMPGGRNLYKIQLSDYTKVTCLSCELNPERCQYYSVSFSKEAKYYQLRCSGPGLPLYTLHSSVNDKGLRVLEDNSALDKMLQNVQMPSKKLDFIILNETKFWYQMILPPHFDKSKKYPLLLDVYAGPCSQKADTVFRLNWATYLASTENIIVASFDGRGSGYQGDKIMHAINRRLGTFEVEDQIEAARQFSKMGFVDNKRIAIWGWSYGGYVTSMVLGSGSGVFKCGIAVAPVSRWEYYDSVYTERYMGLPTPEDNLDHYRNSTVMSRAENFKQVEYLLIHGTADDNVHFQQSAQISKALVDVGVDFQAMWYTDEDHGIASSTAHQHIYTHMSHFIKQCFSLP
Protocol: as §1

[4] = Stability in liver microsomes; format: in vitro ADME; settings: 2 μM peptidomimetic, human liver microsomes, 37° C.; for half-life at 2 μM: pH 7.8, read-out: half-life (t1/2) when incubated with liver microsomes
Protocol: as §1

Human GLP-1 receptor = molecular target: T2, Human GLP-1 receptor (Homo sapiens, UniProt P43220); test: In vitro Human GLP-1 R agonist activity (cyclic AMP determination) in CHO/human GLP1R cells; format: cell-based
T2 construct: The full-length cDNA was cloned in pcDNA3.1(+); expressed in transfected cells
T2 sequence (P43220 24-463): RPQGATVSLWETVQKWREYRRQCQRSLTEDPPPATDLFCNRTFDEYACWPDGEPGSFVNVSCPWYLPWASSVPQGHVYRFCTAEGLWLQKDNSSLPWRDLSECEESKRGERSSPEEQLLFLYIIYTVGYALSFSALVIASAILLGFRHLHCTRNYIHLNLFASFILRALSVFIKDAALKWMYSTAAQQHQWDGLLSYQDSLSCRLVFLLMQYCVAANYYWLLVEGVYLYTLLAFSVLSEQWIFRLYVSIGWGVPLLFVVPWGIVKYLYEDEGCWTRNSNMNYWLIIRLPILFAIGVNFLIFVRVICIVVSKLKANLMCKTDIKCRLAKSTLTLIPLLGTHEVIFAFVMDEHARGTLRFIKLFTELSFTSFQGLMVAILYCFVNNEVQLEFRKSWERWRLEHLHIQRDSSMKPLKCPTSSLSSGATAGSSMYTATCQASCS

SMILES | half-life (t1/2) when incubated with simulated intestinal fluid [1] | % degradation of peptidomimetics in 24 h when incubated with simulated intestinal fluid [1] | % degradation of peptidomimetics in 24 h when incubated with human plasma [2] | half-life at 2 μM [2] | half-life (t1/2) when incubated with simulated gastric fluid [3] | % degradation of peptidomimetics in 24 h when incubated with simulated gastric fluid [3] | Human Glucagon receptor antagonistic activity shown as inhibition of cAMP production of Glucagon peptide (human glucagon receptor; 1 nM test compound) | Human Glucagon receptor antagonistic activity shown as inhibition of cAMP production of Glucagon peptide (human glucagon receptor; 10 nM test compound) | Human Glucagon receptor antagonistic activity shown as inhibition of cAMP production of Glucagon peptide (human glucagon receptor; 100 nM test compound) | Human Glucagon receptor antagonistic activity shown as inhibition of cAMP production of Glucagon peptide (human glucagon receptor; 1 μM test compound) | Human Glucagon receptor antagonistic activity shown as inhibition of cAMP production of Glucagon peptide (human glucagon receptor; 10 μM test compound) | % degradation of peptidomimetics in 24 h when incubated with DPP-IV enzyme (DPP IV) | half-life at 2 μM (DPP IV) | % degradation of peptidomimetics in 24 h when incubated with liver microsomes [4] | half-life at 2 μM [4] | Human GLP-1 R activity (cAMP release), % activity with respect to control (Human GLP-1 receptor; 1 nM test compound) | Human GLP-1 R activity (cAMP release), % activity with respect to control (Human GLP-1 receptor; 10 nM test compound) | Human GLP-1 R activity (cAMP release), % activity with respect to control (Human GLP-1 receptor; 100 nM test compound) | Human GLP-1 R activity (cAMP release), % activity with respect to control (Human GLP-1 receptor; 1 μM test compound) | Human GLP-1 R activity (cAMP release), % activity with respect to control (Human GLP-1 receptor; 10 μM test compound)
CCc1cc(OC)ccc1-c1ccc(CC(NC(=O)[C@H](CC(=O)O)NC(=O)[C@H](CO)NC(=O)[C@@H](NC(=O)[C@H](Cc2ccccc2)NC(=O)[C@@H](NC(=O)CNC(=O)[C@H](CCC(N)=O)NC(=O)C(C)(C)NC(=O)[C@@H](N)Cc2c[nH]cn2)[C@@H](C)O)[C@@H](C)O)C(=O)NC(CCCc2cccc(Cl)c2)C(N)=O)cc1 (single isomer, unassigned) [compound 19] | (6) h | 41% | 70% | 8 h | (8) h | 15% | 0 pmol/ml/μg prt | 0 pmol/ml/μg prt | 0 pmol/ml/μg prt | 0 pmol/ml/μg prt | 0 pmol/ml/μg prt | 86% | 9 h | 77% | 1 h | 99 ± 0.12% | 99 ± 0.08% | 99 ± 0.11% | 99 ± 0.12% | 99 ± 0.16%
CCc1cc(OC)ccc1-c1ccc(CC(NC(=O)[C@H](CC(=O)O)NC(=O)[C@H](CO)NC(=O)[C@@H](NC(=O)[C@H](Cc2ccccc2)NC(=O)[C@@H](NC(=O)CNC(=O)[C@H](CCC(N)=O)NC(=O)C2(NC(=O)[C@@H](N)Cc3c[nH]cn3)CC2)[C@@H](C)O)[C@@H](C)O)C(=O)NC(CCCc2ccc(F)cc2C(F)(F)F)C(N)=O)cc1 (single isomer, unassigned) [compound 72] | (6) h | 41% | 70% | 8 h | (8) h | 15% | 9 ± 0.11 pmol/ml/μg prt | 6 ± 0.12 pmol/ml/μg prt | 5 ± 0.14 pmol/ml/μg prt | 3 ± 0.22 pmol/ml/μg prt | 0 pmol/ml/μg prt | 86% | 9 h | 77% | 1 h | 45 ± 0.022% | 84 ± 0.46% | 90 ± 0.41% | 99 ± 0.66% | 99 ± 0.03%
CCc1cc(OC)ccc1-c1ccc(CC(C(=O)N(C)C(CCCc2ccccc2F)C(N)=O)N(C)C(=O)[C@H](CC(=O)O)NC(=O)[C@H](CO)NC(=O)[C@@H](NC(=O)C(C)(Cc2ccccc2F)NC(=O)[C@@H](NC(=O)CNC(=O)C(CCC#N)NC(=O)C(C)(C)NC(=O)[C@@H](N)Cc2c[nH]cn2)[C@H](C)O)[C@H](C)O)cc1 (single isomer, unassigned) [compound 144] | (6) h | 43% | 78% | 8 h | (8) h | 14% | 5 ± 0.09 pmol/ml/μg prt | 3 ± 0.11 pmol/ml/μg prt | 0 pmol/ml/μg prt | 0 pmol/ml/μg prt | 0 pmol/ml/μg prt | 76% | 9 h | 80% | 1 h | 55 ± 0.16% | 89 ± 0.05% | 93 ± 0.09% | 99 ± 0.02% | 99 ± 0.04%
CCc1cc(OC)ccc1-c1ccc(CC(C(=O)N(C)C(CCCc2ccccc2F)C(N)=O)N(C)C(=O)[C@H](CC(=O)O)N(C)C(=O)[C@H](CO)NC(=O)[C@@H](NC(=O)C(C)(Cc2ccccc2F)NC(=O)[C@@H](NC(=O)CNC(=O)C(CCC#N)NC(=O)C(C)(C)NC(=O)[C@@H](N)Cc2c[nH]cn2)[C@H](C)O)[C@H](C)O)cc1 (single isomer, unassigned) [compound 156] | (6) h | 40% | 71% | 8 h | (8) h | 14% | 5 ± 0.01 pmol/ml/μg prt | 2 ± 0.17 pmol/ml/μg prt | 0 pmol/ml/μg prt | 0 pmol/ml/μg prt | 0 pmol/ml/μg prt | 70% | 9 h | 78% | 1 h | 86 ± 0.11% | 99 ± 0.09% | 99 ± 0.06% | 99 ± 0.14% | 99 ± 0.19%
CCc1cc(OC)ccc1-c1ccc(CC(NC(=O)[C@H](CC(=O)O)NC(=O)[C@H](CO)NC(=O)[C@@H](NC(=O)C(C)(Cc2ccccc2F)NC(=O)[C@@H](NC(=O)CNC(=O)C(CCC#N)NC(=O)C(C)(C)NC(=O)[C@@H](N)Cc2c[nH]cn2)[C@H](C)O)[C@H](C)O)C(=S)NC(CCCc2ccccc2F)C(N)=O)cc1 (single isomer, unassigned) [compound 168] | (6) h | 42% | 70% | 8 h | (8) h | 12% | 21 ± 0.11 pmol/ml/μg prt | 19 ± 0.02 pmol/ml/μg prt | 18 ± 0.07 pmol/ml/μg prt | 18 ± 0.03 pmol/ml/μg prt | 16 ± 0.02 pmol/ml/μg prt | 72% | 9 h | 78% | 1 h | 96 ± 0.09% | 99 ± 0.07% | 99 ± 0.04% | 99 ± 0.01% | 99 ± 0.08%
